Results: patent US20220041681A1 (MEDIMMUNE LIMITED, priority 2016, published 2022)
Numbered stars: 1 amine (or outer) side, 2 acyl side, 3 side chain; on linkers, the order of the positions; unused ones are H or OH. Side chains are listed from the residue outwards. Peptide text beside a SMILES is read from it. * marks the point of attachment. γGlu = O=C(O)[C@H](CCC(=O)[*:2])N[*:1]; Palmitoyl = CCCCCCCCCCCCCCCC(=O)*; Ahx = NCCCCCC(=O)O; βAla = NCCC(=O)O

Assays:
Human GLP1R = Human GLP1R (Homo sapiens, UniProt P43220); assay: cAMP activity assay (assay 1) in assay medium; assay type: cell-based; details: Table 4, additional peptides, read-out: hGLP1R EC50
Human GLP1R, sequence (P43220 24-463): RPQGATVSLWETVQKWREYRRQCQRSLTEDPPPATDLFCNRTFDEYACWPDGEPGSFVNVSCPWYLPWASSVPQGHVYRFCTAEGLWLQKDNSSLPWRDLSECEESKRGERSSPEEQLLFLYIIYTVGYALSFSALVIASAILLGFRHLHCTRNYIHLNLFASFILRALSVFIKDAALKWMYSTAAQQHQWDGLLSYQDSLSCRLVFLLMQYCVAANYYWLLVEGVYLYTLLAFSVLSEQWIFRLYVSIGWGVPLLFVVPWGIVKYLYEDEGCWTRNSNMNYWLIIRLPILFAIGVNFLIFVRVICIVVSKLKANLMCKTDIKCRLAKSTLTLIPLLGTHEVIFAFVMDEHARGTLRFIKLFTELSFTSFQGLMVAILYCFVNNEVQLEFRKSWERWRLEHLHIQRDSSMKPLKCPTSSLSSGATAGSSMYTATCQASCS
Protocol: (§2) All sample dilutions were made in duplicate.
(§3) A frozen cryo-vial of cells expressing the receptor of interest was thawed rapidly in a water-bath, transferred to pre-warmed assay media and spun at 240×g for 5 minutes. Cells were re-suspended in assay media at an optimized concentration (e.g. hGCGR cells at 1×10^5 cells/ml, hGLP-1R and hGIPR cells at 0.5×10^5 cells/ml).
(§4) To this, 5 μL cell suspension was added and the plates incubated at room temperature for 30 minutes.
(§5) cAMP levels were measured using a commercially available cAMP dynamic 2 HTRF kit (Cisbio, Cat #62AM4PEJ), following the two step protocol as per manufacturer's recommendations. In brief; anti-cAMP cryptate (donor fluorophore) and cAMP-d2 (acceptor fluorophore) were made up separately by diluting each 120 in conjugate & lysis buffer provided in the kit. 5 μL anti-cAMP cryptate was added to all wells of the assay plate, and 5 μL cAMP-d2 added to all wells except non-specific binding (NSB) wells, to which conjugate and lysis buffer was added.

[1] = system: diet induced obesity (DIO) mouse model; assay: Diet induced obesity (DIO) mouse model, study A; assay type: in vivo
Excerpt: Female C57/Bl6JHsdOla (obtained from Harlan Laboratories. UK) were started on a high fat diet of D12492 (Research Diets, NJ, USA) and a chocolate confection, delicato ball (Delicata Bakverk, Sweden) at 9-11 weeks of age, and were maintained on the diet for 16 weeks prior to arrival to the animal facility, during a three week acclimation period and during drug treatment, caloric content of the two components of the diet is shown in Table 11. The mice were divided into 9 groups (n=5-6), and treatment was started at 29 weeks of age.
(§1) The body weight of the animals was monitored daily throughout die dosing period. At day 14, blood samples for the measurement of plasma glucose and insulin from conscious mice were obtained after a 4-hour fasting period. Mice were then anaesthetized using isofluorane and terminal blood was collected from the capillary bed behind the eye. The following parameters were measured: blood chemistry measurements of triglycerides, total cholesterol, non-esterified fatty acids (NEFA), beta-hydroxybutyrate and fibroblast growth factor 21 (FGF21) (Tables 14 and 15 below).

[2] = system: diet induced obesity (DIO) mouse model; assay: Diet induced obesity (DIO) mouse model, study B; assay type: in vivo
Protocol: as §1, with “the” for “die”, “isoflourane” for “isofluorane”, “(Table 16” for “(Tables 14”, “Table 17” for “15”

Human GlucR = biological target: T1, Human GlucR (Homo sapiens, UniProt P47871); assay: cAMP activity assay (assay 1) in assay medium; assay type: cell-based; details: Table 4, additional peptides, read-out: hGlucR EC50
T1 construct: expressed in transfected cells
T1 sequence (P47871 26-477): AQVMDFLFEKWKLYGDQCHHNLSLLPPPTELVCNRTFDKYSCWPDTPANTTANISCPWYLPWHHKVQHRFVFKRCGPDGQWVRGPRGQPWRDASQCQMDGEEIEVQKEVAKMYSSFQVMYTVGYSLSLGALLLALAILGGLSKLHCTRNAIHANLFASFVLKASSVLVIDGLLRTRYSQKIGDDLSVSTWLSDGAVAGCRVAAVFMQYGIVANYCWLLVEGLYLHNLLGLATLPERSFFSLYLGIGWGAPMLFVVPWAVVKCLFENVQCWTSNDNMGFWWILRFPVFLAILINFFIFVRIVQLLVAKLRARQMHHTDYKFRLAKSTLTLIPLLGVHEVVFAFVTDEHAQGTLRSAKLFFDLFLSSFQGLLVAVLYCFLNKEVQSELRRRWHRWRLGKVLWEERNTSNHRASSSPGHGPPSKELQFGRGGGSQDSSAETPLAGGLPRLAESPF
Protocol: as §2, §3, §4, §5

[3] = 27 nmol/kg sc twice daily, day 14
[4] = 27 nmol/kg sc twice daily, day 14, 4-hour fasting

CCCCCCCCCCCCCCCC(=O)NCCCCCC(=O)NCCCC[C@H](NC(=O)[C@H](CO)NC(=O)[C@H](CC(=O)O)NC(=O)[C@H](CC(C)C)NC(=O)[C@H](Cc1ccc(O)cc1)NC(=O)[C@H](CCC(=O)O)NC(=O)[C@H](CO)NC(=O)[C@H](Cc1ccc(O)cc1)NC(=O)[C@H](CC(=O)O)NC(=O)[C@H](CO)NC(=O)[C@@H](NC(=O)[C@H](Cc1ccccc1)NC(=O)[C@@H](NC(=O)CNC(=O)[C@H](CCC(N)=O)NC(=O)CNC(=O)[C@@H](N)Cc1c[nH]cn1)[C@@H](C)O)[C@@H](C)O)C(=O)N[C@@H](CCCNC(=N)N)C(=O)N[C@@H](C)C(=O)N[C@@H](CCCNC(=N)N)C(=O)N[C@@H](CC(=O)O)C(=O)N[C@@H](Cc1ccccc1)C(=O)N[C@H](C(=O)N[C@@H](C)C(=O)N[C@@H](Cc1c[nH]c2ccccc12)C(=O)N[C@@H](CC(C)C)C(=O)N[C@@H](CCC(=O)O)C(=O)N[C@@H](CCCNC(=N)N)C(=O)NCC(=O)NCC(N)=O)C(C)C [g684] (H-HGQGTFTSDYSEYLDSK([Ahx-Palmitoyl])RARDFVAWLERGG-NH2; N-terminus assumed)
EC50 (Human GLP1R): 0.0161 nM

CCCCCCCCCCCCCCCC(=O)N[C@@H](CCC(=O)NCCCC[C@H](NC(=O)[C@H](CO)NC(=O)[C@H](CC(=O)O)NC(=O)[C@H](CC(C)C)NC(=O)[C@H](Cc1ccc(O)cc1)NC(=O)[C@H](CCC(=O)O)NC(=O)[C@H](CO)NC(=O)[C@H](Cc1ccc(O)cc1)NC(=O)[C@H](CC(=O)O)NC(=O)[C@H](CO)NC(=O)[C@@H](NC(=O)[C@H](Cc1ccccc1)NC(=O)[C@@H](NC(=O)CNC(=O)[C@H](CCC(N)=O)NC(=O)CNC(=O)[C@@H](N)Cc1c[nH]cn1)[C@@H](C)O)[C@@H](C)O)C(=O)N[C@@H](CCCNC(=N)N)C(=O)N[C@@H](C)C(=O)N[C@@H](CCCNC(=N)N)C(=O)N[C@@H](CC(=O)O)C(=O)N[C@@H](Cc1ccccc1)C(=O)N[C@H](C(=O)N[C@@H](C)C(=O)N[C@@H](Cc1c[nH]c2ccccc12)C(=O)N[C@@H](CC(C)C)C(=O)N[C@H](C(=O)N[C@@H](C)C(=O)NCC(=O)NCC(N)=O)C(C)C)C(C)C)C(=O)O [g735] (H-HGQGTFTSDYSEYLDSK([γGlu-Palmitoyl])RARDFVAWLVAGG-NH2; N-terminus assumed)
EC50 (Human GLP1R): 0.161 nM

CCCCCCCCCCCCCCCC(=O)N[C@@H](CCC(=O)NCCCC[C@H](NC(=O)[C@H](C)NC(=O)[C@H](C)NC(=O)[C@H](CCC(N)=O)NC(=O)CNC(=O)[C@H](CCC(=O)O)NC(=O)[C@H](CC(C)C)NC(=O)[C@H](Cc1ccc(O)cc1)NC(=O)[C@H](CO)NC(=O)[C@H](CO)NC(=O)[C@@H](NC(=O)[C@H](CC(=O)O)NC(=O)[C@H](CO)NC(=O)[C@@H](NC(=O)[C@H](Cc1ccccc1)NC(=O)[C@@H](NC(=O)CNC(=O)[C@H](CCC(=O)O)NC(=O)[C@H](C)NC(=O)[C@@H](N)Cc1cnc[nH]1)[C@@H](C)O)[C@@H](C)O)C(C)C)C(=O)N[C@@H](CCC(=O)O)C(=O)N[C@@H](Cc1ccccc1)C(=O)N[C@H](C(=O)N[C@@H](C)C(=O)N[C@@H](Cc1c[nH]c2ccccc12)C(=O)N[C@@H](CC(C)C)C(=O)N[C@H](C(=O)N[C@@H](CCCNC(=N)N)C(=O)NCC(=O)N[C@@H](CCCNC(=N)N)C(=O)NCC(=O)O)C(C)C)[C@@H](C)CC)C(=O)O [Liraglutide, reference compound]
BW day 14 (% change of vehicle mean) ([1]; 27 nmol/kg sc twice daily 14 days): −13.3%
BeHy ([1]; 27 nmol/kg, day 14): 345 u mol/l
FGF 21 ([1]; 27 nmol/kg, day 14): 2481 pg/mL
HOMA ([1]; 27 nmol/kg, day 14): 2.8
Hepatic TG ([1]; 27 nmol/kg, day 14): 13.1 g TB/100 g tissue
Insulin ([1]; 27 nmol/kg, day 14): 0.3 nM
Plasma Cholesterol ([1]; 27 nmol/kg, day 14): 3.75 mM
Plasma NEFA ([1]; 27 nmol/kg, day 14): 0.24 Mm
Plasma TG ([1]; 27 nmol/kg, day 14): 0.24 mM
Glucose ([1]; 27 nmol/kg, day 14, 4-hour fasting): 8.0 mM
BW day 14 (% change of vehicle mean) ([2]; 27 nmol/kg sc twice daily for 14 days): −14%
FGF 21 [2, 3]: 2990 pg/mL
HOMA [2, 3]: 3.51
Hepatic TG [2, 3]: 18.4 g TG/100 g tissue
Plasma Cholesterol [2, 3]: 3.26 mM
Plasma NEFA [2, 3]: 0.29 mM
Plasma TG [2, 3]: 0.28 mM
Glucose [2, 4]: 7.7 mM
Insulin [2, 4]: 0.31 nM

CCCCCCCCCCCCCCCC(=O)N[C@@H](CCC(=O)NCCCC[C@H](NC(=O)[C@H](CCCCN)NC(=O)[C@H](CO)NC(=O)[C@H](Cc1ccc(O)cc1)NC(=O)[C@H](CC(=O)O)NC(=O)[C@H](CO)NC(=O)[C@@H](NC(=O)[C@H](Cc1ccccc1)NC(=O)[C@@H](NC(=O)CNC(=O)[C@H](CCC(N)=O)NC(=O)C(C)(C)NC(=O)[C@@H](N)Cc1c[nH]cn1)[C@@H](C)O)[C@@H](C)O)C(=O)N[C@@H](CC(C)C)C(=O)N[C@@H](CC(=O)O)C(=O)N[C@@H](CO)C(=O)N[C@@H](CCC(=O)O)C(=O)N[C@@H](CCCNC(=N)N)C(=O)N[C@@H](C)C(=O)N[C@@H](CCCNC(=N)N)C(=O)N[C@@H](CC(=O)O)C(=O)N[C@@H](Cc1ccccc1)C(=O)N[C@H](C(=O)N[C@@H](C)C(=O)N[C@@H](Cc1c[nH]c2ccccc12)C(=O)N[C@@H](CC(C)C)C(=O)N[C@H](C(=O)N[C@@H](C)C(=O)NCC(=O)NCC(N)=O)C(C)C)C(C)C)C(=O)O [g87 ?]
EC50 (Human GlucR): 0.000129 µM
EC50 (Human GLP1R): 0.0298 nM

CCCCCCCCCCCCCCCC(=O)NCCCCCC(=O)NCCCC[C@H](NC(=O)[C@H](CO)NC(=O)[C@H](CC(=O)O)NC(=O)[C@H](CC(C)C)NC(=O)[C@H](Cc1ccc(O)cc1)NC(=O)[C@H](CCC(=O)O)NC(=O)[C@H](CO)NC(=O)[C@H](Cc1ccc(O)cc1)NC(=O)[C@H](CC(=O)O)NC(=O)[C@H](CO)NC(=O)[C@@H](NC(=O)[C@H](Cc1ccccc1)NC(=O)[C@@H](NC(=O)CNC(=O)[C@H](CCC(N)=O)NC(=O)CNC(=O)[C@@H](N)Cc1c[nH]cn1)[C@@H](C)O)[C@@H](C)O)C(=O)N[C@@H](CCCNC(=N)N)C(=O)N[C@@H](C)C(=O)N[C@@H](C)C(=O)N[C@@H](CC(=O)O)C(=O)N[C@@H](Cc1ccccc1)C(=O)N[C@H](C(=O)N[C@@H](C)C(=O)N[C@@H](Cc1c[nH]c2ccccc12)C(=O)N[C@@H](CC(C)C)C(=O)N[C@@H](CCC(=O)O)C(=O)N[C@@H](CCCNC(=N)N)C(=O)NCC(=O)NCC(N)=O)C(C)C [g683]
EC50 (Human GlucR): 0.000372 µM

CCCCCCCCCCCCCCCC(=O)N[C@@H](CCC(=O)NCCCC[C@H](NC(=O)[C@H](CO)NC(=O)[C@H](CC(=O)O)NC(=O)[C@H](CC(C)C)NC(=O)[C@H](Cc1ccc(O)cc1)NC(=O)[C@H](CCCCN)NC(=O)[C@H](CO)NC(=O)[C@H](Cc1ccc(O)cc1)NC(=O)[C@H](CC(=O)O)NC(=O)[C@H](CO)NC(=O)[C@@H](NC(=O)[C@H](Cc1ccccc1)NC(=O)[C@@H](NC(=O)CNC(=O)[C@H](CCC(=O)O)NC(=O)[C@H](CO)NC(=O)[C@@H](N)Cc1c[nH]cn1)[C@@H](C)O)[C@@H](C)O)C(=O)N[C@@H](CCCNC(=N)N)C(=O)N[C@@H](C)C(=O)N[C@@H](CCC(=O)O)C(=O)N[C@@H](CC(=O)O)C(=O)N[C@@H](Cc1ccccc1)C(=O)N[C@H](C(=O)N[C@@H](CCC(=O)O)C(=O)N[C@@H](Cc1c[nH]c2ccccc12)C(=O)N[C@@H](CC(C)C)C(=O)N[C@H](C(=O)N[C@@H](C)C(=O)NCC(=O)NCC(N)=O)C(C)C)C(C)C)C(=O)O [g639] (H-HSEGTFTSDYSKYLDSK([γGlu-Palmitoyl])RAEDFVEWLVAGG-NH2; N-terminus assumed)
EC50 (Human GlucR): 8.21 µM

CCCCCCCCCCCCCCCC(=O)NCCC(=O)NCCCC[C@H](NC(=O)[C@H](CO)NC(=O)[C@H](CC(=O)O)NC(=O)[C@H](CC(C)C)NC(=O)[C@H](Cc1ccc(O)cc1)NC(=O)[C@H](CCC(=O)O)NC(=O)[C@H](CO)NC(=O)[C@H](Cc1ccc(O)cc1)NC(=O)[C@H](CC(=O)O)NC(=O)[C@H](CO)NC(=O)[C@@H](NC(=O)[C@H](Cc1ccccc1)NC(=O)[C@@H](NC(=O)CNC(=O)[C@H](CCC(=O)O)NC(=O)[C@H](CO)NC(=O)[C@@H](N)Cc1c[nH]cn1)[C@@H](C)O)[C@@H](C)O)C(=O)N[C@@H](CCCNC(=N)N)C(=O)N[C@@H](C)C(=O)N[C@@H](CCCNC(=N)N)C(=O)N[C@@H](CC(=O)O)C(=O)N[C@@H](Cc1ccccc1)C(=O)N[C@H](C(=O)N[C@@H](C)C(=O)N[C@@H](Cc1c[nH]c2ccccc12)C(=O)N[C@@H](CC(C)C)C(=O)N[C@@H](CCC(=O)O)C(=O)N[C@@H](C)C(=O)NCC(=O)NCC(N)=O)C(C)C [g734] (H-HSEGTFTSDYSEYLDSK([βAla-Palmitoyl])RARDFVAWLEAGG-NH2; N-terminus assumed)
EC50 (Human GlucR): 8.28 µM

CCCCCCCCCCCCCCCC(=O)N[C@@H](CCC(=O)NCCCC[C@H](NC(=O)[C@H](CCC(=O)O)NC(=O)[C@H](CO)NC(=O)[C@H](Cc1ccc(O)cc1)NC(=O)[C@H](CC(=O)O)NC(=O)[C@H](CO)NC(=O)[C@@H](NC(=O)[C@H](Cc1ccccc1)NC(=O)[C@@H](NC(=O)CNC(=O)[C@H](CCC(N)=O)NC(=O)[C@H](CO)NC(=O)[C@@H](N)Cc1c[nH]cn1)[C@@H](C)O)[C@@H](C)O)C(=O)N[C@@H](CC(C)C)C(=O)N[C@@H](CC(=O)O)C(=O)N[C@@H](CO)C(=O)N[C@@H](CCC(=O)O)C(=O)N[C@@H](CCCNC(=N)N)C(=O)N[C@@H](C)C(=O)N[C@@H](CCCNC(=N)N)C(=O)N[C@@H](CC(=O)O)C(=O)N[C@@H](Cc1ccccc1)C(=O)N[C@H](C(=O)N[C@@H](C)C(=O)N[C@@H](Cc1c[nH]c2ccccc12)C(=O)N[C@@H](CC(C)C)C(=O)N[C@H](C(=O)N[C@@H](C)C(=O)NCC(=O)NCC(N)=O)C(C)C)C(C)C)C(=O)O [g802] (H-HSQGTFTSDYSEK([γGlu-Palmitoyl])LDSERARDFVAWLVAGG-NH2; N-terminus assumed)
EC50 (Human GLP1R): 0.0364 nM
